In one assay the target is T1, FLT3 kinase (Homo sapiens, UniProt P36888).
T1 construct: made in house; host or cells: T7 phage display or HEK-293 cells
T1 sequence (P36888 27-993): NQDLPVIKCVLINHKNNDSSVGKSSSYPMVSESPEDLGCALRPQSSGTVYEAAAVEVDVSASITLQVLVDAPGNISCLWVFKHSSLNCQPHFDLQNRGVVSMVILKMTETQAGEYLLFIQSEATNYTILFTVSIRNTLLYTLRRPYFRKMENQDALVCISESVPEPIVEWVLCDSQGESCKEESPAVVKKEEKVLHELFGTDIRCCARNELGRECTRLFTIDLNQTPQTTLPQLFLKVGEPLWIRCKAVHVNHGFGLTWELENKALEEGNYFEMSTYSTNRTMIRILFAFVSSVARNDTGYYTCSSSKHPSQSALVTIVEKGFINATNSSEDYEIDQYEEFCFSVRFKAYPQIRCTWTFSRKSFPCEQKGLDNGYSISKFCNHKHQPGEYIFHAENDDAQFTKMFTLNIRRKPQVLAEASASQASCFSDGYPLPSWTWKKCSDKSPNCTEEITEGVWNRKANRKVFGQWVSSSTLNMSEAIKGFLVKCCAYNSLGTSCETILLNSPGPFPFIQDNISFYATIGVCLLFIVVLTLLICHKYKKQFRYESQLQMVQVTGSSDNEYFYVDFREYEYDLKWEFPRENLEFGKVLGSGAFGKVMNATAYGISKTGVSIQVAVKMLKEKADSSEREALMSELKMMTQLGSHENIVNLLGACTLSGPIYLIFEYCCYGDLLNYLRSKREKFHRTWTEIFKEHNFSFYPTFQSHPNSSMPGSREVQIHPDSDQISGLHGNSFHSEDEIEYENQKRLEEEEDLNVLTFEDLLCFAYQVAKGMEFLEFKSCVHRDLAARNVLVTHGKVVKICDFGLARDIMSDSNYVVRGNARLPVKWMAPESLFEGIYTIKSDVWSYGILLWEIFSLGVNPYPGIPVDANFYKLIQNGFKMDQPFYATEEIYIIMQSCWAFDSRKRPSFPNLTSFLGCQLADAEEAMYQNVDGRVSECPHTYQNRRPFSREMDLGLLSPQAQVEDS
The experiment in a line: Competition binding assay, FLT3 Kd. The method, boiled down:
(§1)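 Kd values derived from an eleven-point, threefold compound dilution series in a bead-based competition format: kinase (phage-fused or HEK-293-derived with DNA tag), ligand-coated streptavidin beads and compound equilibrated 1 h at room temperature. After washing, retained kinase was eluted with non-biotinylated ligand (0.5 μM) and measured by quantitative PCR.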

In a further assay the target is T2, KIT kinase (Homo sapiens, UniProt P10721).
T2 construct: made in house; host or cells: T7 phage display or HEK-293 cells
The experiment in a line: Competition binding assay, KIT Kd. In short, it runs like this:
as §1

The target in a further assay is T3, CSF-1R kinase (Homo sapiens, UniProt P07333).
T3 construct: made in house; host or cells: T7 phage display or HEK-293 cells
The experiment in a line: Competition binding assay, CSF-1R Kd. In short, it runs like this:
as §1

In another assay the test system is MV4-11 cells. The experiment in a line: MV4-11 cell proliferation assay (Alamar Blue). The assay is classed as cell-based. Conditions: Homo sapiens, MV4-11, 72 h, 3 days incubation. The method, boiled down:
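Viability readout: Alamar Blue fluorescence, ex 560/em 590 nm, 3 h after reagent addition, after 3-day exposure of 64,000 MV4-11 cells per well to a 9-point half-log compound series in 0.5% FBS Iscove's. IC50 from duplicate averages, as 50% proliferation inhibition relative to negative control.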
(Resazurin is reduced to fluorescent resorufin, in cell work by metabolically active cells.)

Assay [1] deals with kinase panel containing either 359 or 386 distinct kinases. The experiment in a line: Selectivity score S10 from competition binding against a panel of kinases. Conditions: compounds at 10 μM; panel of 359 distinct kinases. In short, it runs like this:
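Compounds were tested at 10 μM in competition binding against T7 phage-fused or HEK-293-expressed DNA-tagged kinases with immobilized affinity ligands, 1 h at room temperature. Bound kinase was quantified by qPCR as percent of DMSO control; S10 is the fraction of distinct kinases (mutants excluded) with POC below 10.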

Experimental findings from patent US20130035326A1 (AMBIT BIOSCIENCES CORPORATION, priority 2009, published 2013) are described below.

T2 sequence (P10721 26-976): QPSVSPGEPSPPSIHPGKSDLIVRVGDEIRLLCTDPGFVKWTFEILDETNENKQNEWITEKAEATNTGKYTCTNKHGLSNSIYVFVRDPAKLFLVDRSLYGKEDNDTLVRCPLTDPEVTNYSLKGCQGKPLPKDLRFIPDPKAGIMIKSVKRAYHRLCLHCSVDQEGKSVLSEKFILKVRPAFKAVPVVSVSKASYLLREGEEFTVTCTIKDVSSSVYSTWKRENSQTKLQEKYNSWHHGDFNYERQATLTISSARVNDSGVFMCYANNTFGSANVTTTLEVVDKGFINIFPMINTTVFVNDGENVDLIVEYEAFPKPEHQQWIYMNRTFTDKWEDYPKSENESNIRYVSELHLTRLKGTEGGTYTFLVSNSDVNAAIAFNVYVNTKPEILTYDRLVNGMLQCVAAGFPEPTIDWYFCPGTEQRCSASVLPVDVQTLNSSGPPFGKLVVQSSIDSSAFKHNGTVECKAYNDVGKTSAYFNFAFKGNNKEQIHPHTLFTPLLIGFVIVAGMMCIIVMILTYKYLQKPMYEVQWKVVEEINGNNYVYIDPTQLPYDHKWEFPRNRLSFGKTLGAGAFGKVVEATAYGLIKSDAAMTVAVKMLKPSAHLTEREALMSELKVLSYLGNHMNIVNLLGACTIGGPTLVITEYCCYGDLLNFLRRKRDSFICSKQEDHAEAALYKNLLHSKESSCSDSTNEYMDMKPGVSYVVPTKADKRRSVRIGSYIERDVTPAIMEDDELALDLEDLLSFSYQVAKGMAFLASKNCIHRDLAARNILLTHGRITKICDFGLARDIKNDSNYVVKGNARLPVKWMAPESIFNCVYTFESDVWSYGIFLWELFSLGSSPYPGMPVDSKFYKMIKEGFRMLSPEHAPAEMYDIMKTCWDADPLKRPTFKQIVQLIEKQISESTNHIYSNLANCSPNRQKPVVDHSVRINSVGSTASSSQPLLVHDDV
T3 sequence (P07333 20-972): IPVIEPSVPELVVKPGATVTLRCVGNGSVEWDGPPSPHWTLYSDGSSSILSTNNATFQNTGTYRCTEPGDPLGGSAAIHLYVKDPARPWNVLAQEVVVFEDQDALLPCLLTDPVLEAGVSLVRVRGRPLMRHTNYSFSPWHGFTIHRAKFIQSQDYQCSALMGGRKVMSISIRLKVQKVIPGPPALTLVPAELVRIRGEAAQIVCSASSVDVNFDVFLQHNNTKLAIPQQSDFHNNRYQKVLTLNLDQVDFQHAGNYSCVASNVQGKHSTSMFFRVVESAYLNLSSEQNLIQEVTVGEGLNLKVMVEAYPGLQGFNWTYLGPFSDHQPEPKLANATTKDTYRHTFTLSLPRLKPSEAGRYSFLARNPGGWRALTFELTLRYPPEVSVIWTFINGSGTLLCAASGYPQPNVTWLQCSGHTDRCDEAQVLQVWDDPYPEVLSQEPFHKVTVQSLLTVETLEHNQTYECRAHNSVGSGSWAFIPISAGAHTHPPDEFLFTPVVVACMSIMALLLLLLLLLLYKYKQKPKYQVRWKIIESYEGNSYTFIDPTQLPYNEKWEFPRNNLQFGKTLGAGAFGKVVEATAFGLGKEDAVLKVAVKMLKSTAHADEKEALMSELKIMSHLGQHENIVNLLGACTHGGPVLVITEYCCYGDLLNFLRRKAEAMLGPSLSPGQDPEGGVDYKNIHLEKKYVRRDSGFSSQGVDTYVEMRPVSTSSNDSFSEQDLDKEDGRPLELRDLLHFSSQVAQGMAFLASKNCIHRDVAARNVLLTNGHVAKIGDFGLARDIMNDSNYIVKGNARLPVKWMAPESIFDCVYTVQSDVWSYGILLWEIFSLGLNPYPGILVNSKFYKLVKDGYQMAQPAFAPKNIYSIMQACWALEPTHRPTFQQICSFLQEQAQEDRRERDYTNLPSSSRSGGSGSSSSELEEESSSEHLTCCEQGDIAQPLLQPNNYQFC

Consider `CC(C)(C)c1cc(NC(=O)Nc2cc(F)c(-c3ccc(N)nc3)cc2F)no1` [Example 20, 1-(4-(6-aminopyridin-3-yl)-2,5-difluorophenyl)-3-(5-tert-butylisoxazol-3-yl)urea], for which the Kd (as a rule, a measure of binding affinity in units of concentration) on FLT3 kinase is ≤ 0.001 µM; at KIT kinase, 0.001 to 0.01 µM; on CSF-1R kinase it was ≤ 0.01 µM. Besides, the IC50 – broadly, the concentration that inhibits the measured activity by half – with MV4-11 cells is 0.001 to 0.01 µM. Also, in assay [1], the “Kinase specificty: S(10)-359 panel” value is “B (0.1<B≦0.2 nM)”.
Take `CC(C)(C)c1cc(NC(=O)Nc2ccc(-c3cnc4c(c3)COCCN4)cc2)no1` [Example 21, 1-(5-tert-butylisoxazol-3-yl)-3-(4-(1,2,3,5-tetrahydropyrido[2,3-e][1,4]oxazepin-7-yl)phenyl)urea]: the figures for the Kd at FLT3 kinase, on KIT kinase and on CSF-1R kinase were ≤ 0.001 µM, ≤ 0.001 µM and ≤ 0.01 µM, respectively. The compound further had an IC50 in the assay with MV4-11 cells of 0.001 to 0.01 µM. The “Kinase specificty: S(10)-359 panel” value in assay [1] is “B (0.1<B≦0.2 nM)”.
For `CC(C)(C)c1cc(NC(=O)Nc2ccc(-c3cnc(N)c(COCCO)c3)cc2)no1` [Example 22, 1-(4-(6-amino-5-((2-hydroxyethoxy)methyl)pyridin-3-yl)phenyl)-3-(5-tert-butylisoxazol-3-yl)urea], the values for the Kd on FLT3 kinase, on KIT kinase and at CSF-1R kinase were ≤ 0.001 µM, ≤ 0.001 µM and ≤ 0.01 µM, respectively. In the assay with MV4-11 cells, the IC50 is ≤ 0.001 µM. The “Kinase specificty: S(10)-359 panel” value in assay [1] is on record as “B (0.1<B≦0.2 nM)”.
Turning to `Cc1nc(N)ccc1-c1ccc(NC(=O)Nc2cc(C(C)(C)C)on2)cc1` [Example 23, 1-(4-(6-amino-2-methylpyridin-3-yl)phenyl)-3-(5-tert-butylisoxazol-3-yl)urea], the dissociation constant Kd is ≤ 0.001 µM on FLT3 kinase, 0.001 to 0.01 µM at KIT kinase and ≤ 0.01 µM at CSF-1R kinase. The same compound came in with an IC50 in the assay on MV4-11 cells of 0.01 to 0.1 µM. Also, the “Kinase specificty: S(10)-359 panel” value in assay [1] is “A (A≦0.1)”.
Taken in the same sequence, the figures for `Cc1cc(N)ncc1-c1ccc(NC(=O)Nc2cc(C(C)(C)C)on2)cc1` [Example 24, 1-(4-(6-amino-4-methylpyridin-3-yl)phenyl)-3-(5-tert-butylisoxazol-3-yl)urea] were ≤ 0.001 µM, 0.001 to 0.01 µM, ≤ 0.01 µM, 0.001 to 0.01 µM and “A (A≦0.1)”.
For `Cc1nc(N)ccc1-c1ccc(NC(=O)Nc2cc(C(C)(C)C)on2)nc1` [Example 25, 1-(6′-amino-2′-methyl-3,3′-bipyridin-6-yl)-3-(5-tert-butylisoxazol-3-yl)urea] the same measures were ≤ 0.001 µM, ≤ 0.001 µM, 0.01 to 0.1 µM, 0.1 to 0.5 µM and “A (A≦0.1)”.
On to `Cc1cc(N)ncc1-c1ccc(NC(=O)Nc2cc(C(C)(C)C)on2)nc1` [Example 26, 1-(6′-amino-4′-methyl-3,3′-bipyridin-6-yl)-3-(5-tert-butylisoxazol-3-yl)urea], for which the Kd at FLT3 kinase was ≤ 0.001 µM; on KIT kinase, ≤ 0.001 µM; on CSF-1R kinase, ≤ 0.01 µM. For the same compound, the 50% inhibitory concentration (IC50) in the assay on MV4-11 cells lay in the range of 0.1 to 0.5 µM. The “Kinase specificty: S(10)-359 panel” value in assay [1] is reported as “A (A≦0.1)”.
With `CC(C)(C)c1cc(NC(=O)Nc2ccc(-c3cnc(N)nc3)cc2)no1` [Example 44, 1-(4-(2-aminopyrimidin-5-yl)phenyl)-3-(5-tert-butylisoxazol-3-yl)urea], the Kd at FLT3 kinase was ≤ 0.001 µM; at KIT kinase, 0.001 to 0.01 µM; on CSF-1R kinase, ≤ 0.01 µM. In the assay with MV4-11 cells, the IC50 was ≤ 0.001 µM. Besides, the “Kinase specificty: S(10)-359 panel” value in assay [1] is reported as “B (0.1<B≦0.2 nM)”.
Consider `Nc1ncc(-c2ccc(NC(=O)Cc3cccc(C(F)(F)F)c3)cc2)cn1` [Example 46, N-(4-(2-aminopyrimidin-5-yl)phenyl)-2-(3-(trifluoromethyl)phenyl)acetamide], for which the Kd at FLT3 kinase is 0.001 to 0.01 µM; at KIT kinase, ≤ 0.001 µM; at CSF-1R kinase, 0.01 to 0.1 µM. In the assay on MV4-11 cells, this compound returned an IC50 of 0.01 to 0.1 µM. Besides, the “Kinase specificty: S(10)-359 panel” value in assay [1] is “A (A≦0.1)”.
Turning to `CC(C)(C)c1cc(NC(=O)Nc2ccc(-c3cnc(OCCN4CCOCC4)nc3)cc2)no1` [Example 47, 1-(5-tert-Butyl-isoxazol-3-yl)-3-{4-[2-(2-morpholin-4-yl-ethoxy)-pyrimidin-5-yl]-phenyl}-urea], the values for the Kd on FLT3 kinase, on KIT kinase and at CSF-1R kinase were 0.001 to 0.01 µM, 0.001 to 0.01 µM and 0.01 to 0.1 µM, respectively. The compound also gave an IC50 in the assay on MV4-11 cells of 0.01 to 0.1 µM. The “Kinase specificty: S(10)-359 panel” value in assay [1] is on record as “A (A≦0.1)”.
Take `Cc1nc(N)ncc1-c1ccc(NC(=O)Nc2cc(C(C)(C)C)on2)cc1` [Example 49, 1-(4-(2-amino-4-methylpyrimidin-5-yl)phenyl)-3-(5-tert-butylisoxazol-3-yl)urea]: the Kd on FLT3 kinase was ≤ 0.001 µM; at KIT kinase it was ≤ 0.001 µM; on CSF-1R kinase it was ≤ 0.01 µM. For the same compound, the IC50 in the assay on MV4-11 cells is ≤ 0.001 µM. Also, the “Kinase specificty: S(10)-359 panel” value in assay [1] is listed as “B (0.1<B≦0.2 nM)”.
On to `COc1nc(N)ncc1-c1ccc(NC(=O)Nc2cc(C(C)(C)C)on2)cc1` [Example 50, 1-[4-(2-amino-4-methoxypyrimidin-5-yl)-phenyl]-3-(5-tert-butylisoxazol-3-yl)-urea], for which the Kd on FLT3 kinase was 0.001 to 0.01 µM; at KIT kinase, ≤ 0.001 µM; at CSF-1R kinase, ≤ 0.01 µM. Further, the half-maximal inhibitory concentration (IC50) with MV4-11 cells was ≤ 0.001 µM. Besides, the “Kinase specificty: S(10)-359 panel” value in assay [1] was “B (0.1<B≦0.2 nM)”.
Take `CC(CF)(CF)c1cc(NC(=O)Nc2ccc(-c3cnc(NCCN4CCOCC4)nc3)cc2)no1` [Example 52, 1-[5-(2-fluoro-1-fluoromethyl-1-methylethyl)isoxazol-3-yl]-3-{4-[2-(2-morpholin-4-yl-ethylamino)pyrimidin-5-yl]phenyl}urea]: the Kd is ≤ 0.001 µM on FLT3 kinase, ≤ 0.001 µM on KIT kinase and ≤ 0.01 µM on CSF-1R kinase. Also, the IC50 with MV4-11 cells fell in the range of 0.001 to 0.01 µM. Further, the “Kinase specificty: S(10)-359 panel” value in assay [1] is “B (0.1<B≦0.2 nM)”.
As for `O=C(Nc1ccc(-c2cnc(NCCN3CCOCC3)nc2)cc1)Nc1cc(C2(C(F)(F)F)CC2)on1` [Example 53, 1-{4-[2-(2-morpholin-4-yl-ethylamino)-pyrimidin-5-yl]-phenyl}-3-[5-(1-trifluoromethyl-cyclopropyl)-isoxazol-3-yl]urea], the values for the Kd on FLT3 kinase, at KIT kinase and at CSF-1R kinase were ≤ 0.001 µM, ≤ 0.001 µM and ≤ 0.01 µM, respectively. The compound further returned an IC50 in the assay with MV4-11 cells of 0.001 to 0.01 µM. Besides, the “Kinase specificty: S(10)-359 panel” value in assay [1] is listed as “B (0.1<B≦0.2 nM)”.
`O=C(Nc1ccc(-c2cnc(NCCN3CCOCC3)nc2)cc1)Nc1cccc(C(F)(F)F)c1` [Example 54, 1-(4-(2-(2-morpholinoethylamino)pyrimidin-5-yl)phenyl)-3-(3-(trifluoromethyl)phenyl)urea]: the dissociation constant Kd on FLT3 kinase was ≤ 0.001 µM; at KIT kinase, ≤ 0.001 µM; on CSF-1R kinase it was ≤ 0.01 µM. For the same compound, the IC50 with MV4-11 cells is 0.01 to 0.1 µM. For the same compound, the “Kinase specificty: S(10)-359 panel” value in assay [1] is reported as “A (A≦0.1)”.
Turning to `Cc1ccc(F)c(NC(=O)Nc2ccc(-c3cnc(NCCN4CCOCC4)nc3)cc2)c1` [Example 55, 1-(2-fluoro-5-methylphenyl)-3-(4-(2-(2-morpholinoethylamino)pyrimidin-5-yl)phenyl)urea], the dissociation constant Kd was 0.001 to 0.01 µM at FLT3 kinase, ≤ 0.001 µM at KIT kinase and ≤ 0.01 µM on CSF-1R kinase. In addition, the half-inhibitory concentration (IC50) with MV4-11 cells is 0.1 to 0.5 µM. The “Kinase specificty: S(10)-359 panel” value in assay [1] is given as “A (A≦0.1)”.
In the case of `CC(C)(C)c1cc(NC(=O)Nc2ccc(-c3cnc(CCCN4CCOCC4)nc3)cc2)no1` [Example 56, 1-(5-tert-butylisoxazol-3-yl)-3-(4-(2-(3-morpholinopropyl)pyrimidin-5-yl)phenyl)urea], the Kd was ≤ 0.001 µM at FLT3 kinase, 0.001 to 0.01 µM at KIT kinase and ≤ 0.01 µM on CSF-1R kinase. Also, the IC50 in the assay with MV4-11 cells is 0.01 to 0.1 µM. Moreover, the “Kinase specificty: S(10)-359 panel” value in assay [1] was “A (A≦0.1)”.
